Source: ChEMBL document CHEMBL1156958, “Effect of essential oils, such as raspberry ketone and its derivatives, on antiandrogenic activity based on in vitro reporter gene assay” (Bioorg Med Chem Lett, 2010)

How the values were obtained:
Androgen receptor = target: T1, Androgen receptor (Homo sapiens, UniProt P10275); assay: Antagonist activity at AR in human MDA-kb2 cells co-transfected with MMTV-luc assessed as decrease in DHT-induced luciferase activity by reporter gene assay; assay type: functional, cell-based
T1 sequence (P10275 whole entry): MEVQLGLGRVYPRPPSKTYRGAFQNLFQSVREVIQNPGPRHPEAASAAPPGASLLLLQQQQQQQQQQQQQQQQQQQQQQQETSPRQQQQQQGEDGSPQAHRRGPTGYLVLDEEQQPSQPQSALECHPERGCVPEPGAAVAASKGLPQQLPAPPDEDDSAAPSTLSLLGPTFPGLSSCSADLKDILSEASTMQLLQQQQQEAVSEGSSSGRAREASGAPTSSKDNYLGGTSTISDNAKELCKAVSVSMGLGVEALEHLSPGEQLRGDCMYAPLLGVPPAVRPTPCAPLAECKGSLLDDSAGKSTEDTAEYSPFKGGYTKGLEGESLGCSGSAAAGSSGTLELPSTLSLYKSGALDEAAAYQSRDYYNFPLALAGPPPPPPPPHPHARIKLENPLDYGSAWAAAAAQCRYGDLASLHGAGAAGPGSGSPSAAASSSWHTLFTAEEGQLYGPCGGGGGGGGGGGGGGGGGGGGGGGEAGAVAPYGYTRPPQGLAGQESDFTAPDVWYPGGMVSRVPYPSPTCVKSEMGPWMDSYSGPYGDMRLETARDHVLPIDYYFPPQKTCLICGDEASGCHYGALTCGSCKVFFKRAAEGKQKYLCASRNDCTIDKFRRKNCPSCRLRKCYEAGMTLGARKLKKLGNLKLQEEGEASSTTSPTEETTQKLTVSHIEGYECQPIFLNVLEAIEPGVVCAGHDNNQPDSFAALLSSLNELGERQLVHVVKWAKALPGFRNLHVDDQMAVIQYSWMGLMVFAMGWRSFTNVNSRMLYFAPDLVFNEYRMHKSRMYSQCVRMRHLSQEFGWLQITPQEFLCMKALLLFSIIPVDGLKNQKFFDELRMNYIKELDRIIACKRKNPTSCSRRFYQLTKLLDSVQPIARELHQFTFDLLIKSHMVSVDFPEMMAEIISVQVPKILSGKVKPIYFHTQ

Rattus norvegicus [1] = assay: Drug level in Wistar rat blood at 200 mg/kg; assay type: ADME, organism-based; design: dose 200 mg/kg; settings: in vivo
Rattus norvegicus [2] = assay: Drug level in Wistar rat blood at 10 g/kg; assay type: ADME, organism-based; settings: in vivo, 10000 mg/kg

Row | Drug uptake (Rattus norvegicus [2]) | Compound | IC50 (Androgen receptor; read-out: IC50) | IC50 (Androgen receptor; read-out: pIC50 (converted)) | Drug uptake (Rattus norvegicus [1])
1 |  | CC(=O)Cc1ccc(O)cc1 | 420 µM | 417 µM | 
2 |  | CC(C)(C)CC(C)(C)c1ccc(O)cc1 |  |  | 80 ng/mL
3 | 4000 ng/mL | CC(=O)CCc1ccc(O)cc1 [RASPBERRYKETONE] |  |  | 
4 |  | COc1cc(CCC(C)=O)ccc1O [ZINGERONE] | 153 µM | 151 µM | 
